# The NIST ThermoML archive (doi:10.1021/acs.jced.6b01013)
# ± gives the expanded uncertainty stated by the source.
# Experiment: xn = mol fraction of the nth substance listed
# Settings: 100 kPa, Liquid, Pycnometric method
SMILES,"mass density (293.15 K, x2 = 0.75) [kg/m3]","mass density (293.15 K, x2 = 0.8) [kg/m3]","mass density (293.15 K, x2 = 0.83) [kg/m3]","mass density (303.15 K, x2 = 0.75) [kg/m3]","mass density (303.15 K, x2 = 0.8) [kg/m3]","mass density (303.15 K, x2 = 0.83) [kg/m3]","mass density (313.15 K, x2 = 0.75) [kg/m3]","mass density (313.15 K, x2 = 0.8) [kg/m3]","mass density (313.15 K, x2 = 0.83) [kg/m3]","mass density (323.15 K, x2 = 0.75) [kg/m3]","mass density (323.15 K, x2 = 0.8) [kg/m3]","mass density (323.15 K, x2 = 0.83) [kg/m3]",also measured
COc1ccccc1O [2-methoxyphenol] + C[N+](C)(C)CCO.[Cl-],,,,,,,,,,,,,"mass density (293.15 K, x1 = 0.75): 1153.3 ± 4 kg/m3; mass density (293.15 K, x1 = 0.8): 1155.6 ± 4 kg/m3; mass density (293.15 K, x1 = 0.83): 1149.7 ± 4.1 kg/m3; mass density (303.15 K, x1 = 0.75): 1147.5 ± 4 kg/m3; mass density (303.15 K, x1 = 0.8): 1147.7 ± 4 kg/m3; mass density (303.15 K, x1 = 0.83): 1143.4 ± 4.1 kg/m3; mass density (313.15 K, x1 = 0.75): 1141.2 ± 4 kg/m3; mass density (313.15 K, x1 = 0.8): 1140.6 ± 4 kg/m3; mass density (313.15 K, x1 = 0.83): 1136.2 ± 4.1 kg/m3; mass density (323.15 K, x1 = 0.75): 1134.1 ± 4.1 kg/m3; mass density (323.15 K, x1 = 0.8): 1132.4 ± 4.1 kg/m3; mass density (323.15 K, x1 = 0.83): 1128 ± 4.1 kg/m3"
CC(=O)OCC[N+](C)(C)C.[Cl-] [acetylcholine chloride] + COc1ccccc1O,1149.6 ± 4,1149.3 ± 4,1152.7 ± 4,1146.1 ± 4,1144.8 ± 4,1148.1 ± 4,1139.8 ± 4,1138.1 ± 4,1142.5 ± 4,1133.8 ± 4,1131.7 ± 4,1135.1 ± 4,
CCNCC.Cl [diethylammonium chloride] + COc1ccccc1O,1095.4 ± 4,1102.4 ± 4,1106.1 ± 4,1093.1 ± 4,1098.3 ± 4,1103.5 ± 4,1083.7 ± 4,1089.8 ± 4,1093.7 ± 4,1075.8 ± 4.1,1084.1 ± 4,1083.5 ± 4,
